Laboratory results: patent publication US10323018B2 (Millennium Pharmaceuticals, Inc., priority 2015, dated 2019)

How the values were obtained:
hNAMPT protein = hNAMPT protein (Homo sapiens (Human), UniProt P43490); assay: NAMPT enzyme assay (TR-FRET/HTRF with BodiPY ligand); format: binding; conditions: for inhibition at 1 µM: NAMPT inhibition at compound concentration 1 μM; for IC50: NAMPT inhibition, IC50 range class
How it was run: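 His-tagged hNAMPT with anti-6His-Tb, incubated with compound and BodiPY ligand for 1 h at rt in the dark, in Tris-HCl pH 7.5 buffer with DTT, NaCl, MgCl2 and Tween 20. TR-FRET measured with 320 nm excitation as the 520/486 nm emission ratio. IC50 fitted relative to DMSO controls.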

PC3 cells = assay: PC3 growth inhibition (Cell-titer glo, 72 hours); format: cell-based; conditions: Homo sapiens, PC-3, 72 h, read-out: Percent Viability, PC3 cells, compound concentration 1.667 μM, 72 hours
How it was run: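 PC3 cells grown in RPMI1640 plated at 8×10^4 cells/ml, incubated overnight, then exposed to compound diluted in AIM serum-free medium for 72 h at 37 °C, 5% CO2. Luminescence by CellTiter-Glo relative to DMSO controls; % viability at single concentration, GI50 or LD50 from concentration-response curves.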

Sequence of hNAMPT protein (P43490 whole entry): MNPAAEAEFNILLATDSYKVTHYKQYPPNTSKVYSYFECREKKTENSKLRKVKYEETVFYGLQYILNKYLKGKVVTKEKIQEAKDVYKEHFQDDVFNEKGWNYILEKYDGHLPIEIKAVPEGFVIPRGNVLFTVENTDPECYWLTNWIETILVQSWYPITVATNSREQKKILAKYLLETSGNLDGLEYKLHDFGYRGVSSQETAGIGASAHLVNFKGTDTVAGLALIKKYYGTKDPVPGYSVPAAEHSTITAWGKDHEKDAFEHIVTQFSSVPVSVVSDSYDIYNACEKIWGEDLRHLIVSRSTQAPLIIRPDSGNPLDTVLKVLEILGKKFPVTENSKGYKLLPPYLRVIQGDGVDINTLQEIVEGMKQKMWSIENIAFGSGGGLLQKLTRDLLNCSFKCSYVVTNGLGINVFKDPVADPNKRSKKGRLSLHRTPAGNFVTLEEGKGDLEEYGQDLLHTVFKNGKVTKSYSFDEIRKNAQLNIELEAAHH

| Structure (SMILES) | inhibition at 1 µM (hNAMPT protein; read-out: Percent Inhibition) | IC50 (hNAMPT protein) | viability at 1.667 µM (PC3 cells) | inhibition at 0.33 µM (hNAMPT protein; NAMPT inhibition at compound concentration 0.33 μM, read-out: Percent Inhibition) |
| --- | --- | --- | --- | --- |
| CCOc1cc(-c2ccncc2C)nc2cc(C(=O)NCCCc3nnc[nH]3)ccc12 [Compound I-158, 4-ethoxy-2-(3-methylpyridin-4-yl)-N-[3-(4H-1,2,4-triazol-3-yl)propyl]quinoline-7-carboxamide] | 97% | 10 to 50 nM | 1% | – |
| CCOc1cc(-c2cc(C)cnc2OC)nc2cc(C(=O)NCCCc3nnc[nH]3)ccc12 [Compound I-159, 4-ethoxy-2-(2-methoxy-5-methylpyridin-3-yl)-N-[3-(4H-1,2,4-triazol-3-yl)propyl]quinoline-7-carboxamide] | 99% | 10 to 50 nM | 2% | – |
| CCOc1cc(-c2ccc(F)cc2)nc2cc(C(=O)N[C@@H](C)c3nc4cnccc4[nH]3)ccc12 [Compound I-160, 4-ethoxy-2-(4-fluorophenyl)-N-[(1S)-1-(1H-imidazo[4,5-c]pyridin-2-yl)ethyl]quinoline-7-carboxamide] | 60% | > 100 nM | > 99% | – |
| CCOc1cc(-c2cc(F)cnc2OC)nc2cc(C(=O)NCCCc3nnc[nH]3)ccc12 [Compound I-161, 4-ethoxy-2-(5-fluoro-2-methoxypyridin-3-yl)-N-[3-(4H-1,2,4-triazol-3-yl)propyl]quinoline-7-carboxamide] | 97% | 10 to 50 nM | 2% | – |
| Cc1cc(-c2nc(-c3ccc(F)cc3)nc3cc(C(=O)NCCCc4nnc[nH]4)ccc23)ccn1 [Compound I-162, 2-(4-fluorophenyl)-4-(2-methylpyridin-4-yl)-N-[3-(4H-1,2,4-triazol-3-yl)propyl]quinazoline-7-carboxamide] | 94% | 10 to 50 nM | 2% | – |
| CCCc1cc(-c2ccc(F)cc2)nc2cc(C(=O)NCCCc3ncc[nH]3)ccc12 [Compound I-163, 2-(4-fluorophenyl)-N-[3-(1H-imidazol-2-yl)propyl]-4-propylquinoline-7-carboxamide] | 97% | < 10 nM | 2% | – |
| CCOc1cc(-c2cc(OC)ncc2Cl)nc2cc(C(=O)NCCCc3nnc[nH]3)ccc12 [Compound I-164, 2-(5-chloro-2-methoxypyridin-4-yl)-4-ethoxy-N-[3-(4H-1,2,4-triazol-3-yl)propyl]quinoline-7-carboxamide] | 97% | < 10 nM | 2% | – |
| CCOc1cc(-c2ccc(F)cc2OC)nc2cc(C(=O)NCCCc3nnc[nH]3)ccc12 [Compound I-165, 4-ethoxy-2-(4-fluoro-2-methoxyphenyl)-N-[3-(4H-1,2,4-triazol-3-yl)propyl]quinoline-7-carboxamide] | 99% | 10 to 50 nM | 1% | – |
| CCOc1cc(-c2ccnc(OC)c2Cl)nc2cc(C(=O)NCCCc3nnc[nH]3)ccc12 [Compound I-166, 2-(3-chloro-2-methoxypyridin-4-yl)-4-ethoxy-N-[3-(4H-1,2,4-triazol-3-yl)propyl]quinoline-7-carboxamide] | 94% | 10 to 50 nM | 2% | – |
| CCOc1cc(-c2ccc(C)nc2)nc2cc(C(=O)NCc3nc4cnccc4[nH]3)ccc12 [Compound I-167, 4-ethoxy-N-(1H-imidazo[4,5-c]pyridin-2-ylmethyl)-2-(6-methylpyridin-3-yl)quinoline-7-carboxamide] | > 99% | < 10 nM | 2% | – |
| CCOc1cc(-c2ccc(C)nc2)nc2cc(C(=O)NCCc3nnc[nH]3)ccc12 [Compound I-168, 4-ethoxy-2-(6-methylpyridin-3-yl)-N-[2-(4H-1,2,4-triazol-3-yl)ethyl]quinoline-7-carboxamide] | 95% | 10 to 50 nM | 2% | – |
| CCOc1cc(-c2ccc(C)nc2)nc2cc(C(=O)NCCc3c[nH]nn3)ccc12 [Compound I-169, 4-ethoxy-2-(6-methylpyridin-3-yl)-N-[2-(1H-1,2,3-triazol-4-yl)ethyl]quinoline-7-carboxamide] | 97% | 10 to 50 nM | 3% | – |
| CCOc1cc(-c2ccc(F)cc2OC)nc2cc(C(=O)NCCc3ncn[nH]3)ccc12 [Compound I-170, 4-ethoxy-2-(4-fluoro-2-methoxyphenyl)-N-[2-(1H-1,2,4-triazol-5-yl)ethyl]quinoline-7-carboxamide] | 93% | 50 to 100 nM | 2% | – |
| CCCc1cc(-c2ccc(F)cc2)nc2cc(C(=O)NCCCc3ncn[nH]3)ccc12 [Compound I-171, 2-(4-fluorophenyl)-4-propyl-N-[3-(4H-1,2,4-triazol-3-yl)propyl]quinoline-7-carboxamide] | 97% | 10 to 50 nM | 2% | – |
| CCOc1cc(-c2ccnc(C)c2)nc2cc(C(=O)NCCc3nnc[nH]3)ccc12 [Compound I-172, 4-ethoxy-2-(2-methylpyridin-4-yl)-N-[2-(4H-1,2,4-triazol-3-yl)ethyl]quinoline-7-carboxamide] | 71% | > 100 nM | 6% | – |
| CCOc1cc(-c2ccc(C)nc2)nc2cc(C(=O)NCCCc3nnc[nH]3)ccc12 [Compound I-173, 4-ethoxy-2-(6-methylpyridin-3-yl)-N-[3-(4H-1,2,4-triazol-3-yl)propyl]quinoline-7-carboxamide] | 98% | 10 to 50 nM | 2% | – |
| CCOc1cc(-c2ccc(C)nc2OC)nc2cc(C(=O)NCc3nc4cnccc4[nH]3)ccc12 [Compound I-174, 4-ethoxy-N-(1H-imidazo[4,5-c]pyridin-2-ylmethyl)-2-(2-methoxy-6-methylpyridin-3-yl)quinoline-7-carboxamide] | > 99% | < 10 nM | 1% | – |
| CCOc1cc(-c2ccc(Cl)s2)nc2cc(C(=O)NCc3nc4cnccc4[nH]3)ccc12 [Compound I-175, 2-(5-chloro-2-thienyl)-4-ethoxy-N-(1H-imidazo[4,5-c]pyridin-2-ylmethyl)quinoline-7-carboxamide] | – | < 10 nM | 2% | 98% |
| CCOc1cc(-c2ccc(Cl)s2)nc2cc(C(=O)NCCc3cnn[nH]3)ccc12 [Compound I-176, 2-(5-chloro-2-thienyl)-4-ethoxy-N-[2-(1H-1,2,3-triazol-5-yl)ethyl]quinoline-7-carboxamide] | 99% | 10 to 50 nM | 4% | – |
| CCOc1cc(-c2ccc(Cl)s2)nc2cc(C(=O)NCCc3nnc[nH]3)ccc12 [Compound I-177, 2-(5-chloro-2-thienyl)-4-ethoxy-N-[2-(4H-1,2,4-triazol-3-yl)ethyl]quinoline-7-carboxamide] | 97% | 10 to 50 nM | 3% | – |
| CCOc1cc(-c2ccc(F)cc2)nc2cc(C(=O)NCc3nc4cnccc4n3C)ccc12 [Compound I-178, 4-ethoxy-2-(4-fluorophenyl)-N-[(1-methyl-1H-imidazo[4,5-c]pyridin-2-yl)methyl]quinoline-7-carboxamide] | 99% | < 10 nM | 2% | – |
| CCOc1cc(-c2cc(F)ccc2OC)nc2cc(C(=O)NCc3nc4cnccc4n3C)ccc12 [Compound I-179, 4-ethoxy-2-(5-fluoro-2-methoxyphenyl)-N-[(1-methyl-1H-imidazo[4,5-c]pyridin-2-yl)methyl]quinoline-7-carboxamide] | 95% | 50 to 100 nM | 2% | – |
| CCOc1cc(-c2cccnc2OC)nc2cc(C(=O)NCCc3nnc[nH]3)ccc12 [Compound I-180, 4-ethoxy-2-(2-methoxypyridin-3-yl)-N-[2-(4H-1,2,4-triazol-3-yl)ethyl]quinoline-7-carboxamide] | 83% | > 100 nM | 2% | – |
| CCOc1cc(-c2ccnc(C)c2)nc2cc(C(=O)NCCc3cnn[nH]3)ccc12 [Compound I-181, 4-ethoxy-2-(2-methylpyridin-4-yl)-N-[2-(1H-1,2,3-triazol-5-yl)ethyl]quinoline-7-carboxamide] | 86% | > 100 nM | 9% | – |
| CCOc1cc(-c2cc(F)ccc2OC)nc2cc(C(=O)NCCc3nnc[nH]3)ccc12 [Compound I-182, 4-ethoxy-2-(5-fluoro-2-methoxyphenyl)-N-[2-(4H-1,2,4-triazol-3-yl)ethyl]quinoline-7-carboxamide] | 77% | > 100 nM | 5% | – |
| CCOc1cc(-c2ccc(C)nc2OC)nc2cc(C(=O)NCCCc3nc[nH]n3)ccc12 [Compound I-183, 4-ethoxy-2-(2-methoxy-6-methylpyridin-3-yl)-N-[3-(1H-1,2,4-triazol-3-yl)propyl]quinoline-7-carboxamide] | 94% | 50 to 100 nM | 2% | – |
| CCOc1cc(-c2cc(F)ccc2OC)nc2cc(C(=O)NCCc3cnn[nH]3)ccc12 [Compound I-184, 4-ethoxy-2-(5-fluoro-2-methoxyphenyl)-N-[2-(1H-1,2,3-triazol-5-yl)ethyl]quinoline-7-carboxamide] | 91% | 50 to 100 nM | 6% | – |
| CCOc1cc(-c2ccc(OC)nc2)nc2cc(C(=O)NCCc3c[nH]nn3)ccc12 [Compound I-185, 4-ethoxy-2-(6-methoxypyridin-3-yl)-N-[2-(1H-1,2,3-triazol-4-yl)ethyl]quinoline-7-carboxamide] | 98% | 10 to 50 nM | 2% | – |
